Assay [1] in a line: Inhibition of SUMO E1 (unknown origin). Further details: species or system Homo sapiens.
Assay [2] in a line: Inhibition of His-tagged SUMO1/GST-tagged Aos1/Uba2/His-tagged Ubc9 (unknown origin)-mediated recombinant His/T7-tagged RanGAP1-C-terminal fragment SUMOylation expressed in Escherichia coli BL21 (DE3) assessed as reduction in Ubc9-SUMO level in presence of ATP by SDS-PAGE based immunoblotting analysis. Further details: species or system Homo sapiens.
Assay [3] is described as follows: Inhibition of His-tagged SUMO/SAE /Ubc9 (unknown origin)-mediated recombinant 6His-tagged RanGAP1 SUMOylation in presence of ATP by HTRF analysis. Also on record: species or system Homo sapiens.
Assay [4] in a line: Inhibition of His-tagged SUMO1/SUMO E1 /GST-tagged Aos1/Uba2/His-tagged Ubc9 (unknown origin)-mediated recombinant His/T7-tagged RanGAP1-C2-terminal fragment SUMOylation in presence of ATP by SDS-PAGE based immunoblotting analysis. Further details: species or system Homo sapiens.
Assay [5] can be described thus: Inhibition of His-tagged SUMO1/SUMO E1 /GST-tagged Aos1/Uba2/His-tagged Ubc9 (unknown origin)-mediated recombinant His/T7-tagged RanGAP1-C-terminal fragment SUMOylation assessed as change in chemical shift perturbation by 1H,15N HSQC NMR spectroscopy analysis. Further details: species or system Homo sapiens.
A further assay deals with LNCaP. The experiment in a line: Antiproliferative activity against androgen-sensitive human LNCaP cells assessed as cell growth inhibition incubated for 48 hrs by MTT assay. The format is functional, cell-based.
In a further assay the test system is PC-3. The experiment in a line: Antiproliferative activity against human PC-3 cells assessed as cell growth inhibition incubated for 48 hrs by MTT assay. Format: functional, cell-based. The settings on record: PC-3, 48 h.
Assay [6] can be described thus: Inhibition of Plasmodium falciparum SENP1 using QTGG-AFC as substrate by fluorescence based analysis.
Assay [7] can be described thus: Inhibition of His-tagged SUMO1/SUMO E1 /His-tagged Ubc9 (unknown origin)-mediated […] SUMOylation using FL-AR as substrate incubated for 90 mins in presence of ATP by peptide microarray-based fluorescence assay. Further details: species or system Homo sapiens.
Assay [8] can be described thus: Inhibition of His-tagged SUMO1/SUMO E1 /GST-tagged Aos1/Uba2/His-tagged Ubc9 (unknown origin)-mediated recombinant His/T7-tagged RanGAP1-C-terminal fragment SUMOylation expressed in Escherichia coli BL21 (DE3) assessed as reduction in Ubc9-SUMO level measured upto 2 hrs in presence of ATP by fluorescence polarization analysis. Also on record: species or system Homo sapiens.

A short description of assay [9]: Inhibition of His-tagged SUMO1/SUMO E1 /His-tagged Ubc9 (unknown origin)-mediated SUMOylation using FL-AR as substrate incubated for 90 mins in presence of ATP by Western blot analysis. Further details: species or system Homo sapiens.
The nature of assay [10]: Inhibition of UAE (unknown origin). Also on record: species or system Homo sapiens.
Another assay deals with T1, NEDD8 activating enzyme (Homo sapiens, UniProt Q8TBC4).
T1 sequence (Q8TBC4 whole entry): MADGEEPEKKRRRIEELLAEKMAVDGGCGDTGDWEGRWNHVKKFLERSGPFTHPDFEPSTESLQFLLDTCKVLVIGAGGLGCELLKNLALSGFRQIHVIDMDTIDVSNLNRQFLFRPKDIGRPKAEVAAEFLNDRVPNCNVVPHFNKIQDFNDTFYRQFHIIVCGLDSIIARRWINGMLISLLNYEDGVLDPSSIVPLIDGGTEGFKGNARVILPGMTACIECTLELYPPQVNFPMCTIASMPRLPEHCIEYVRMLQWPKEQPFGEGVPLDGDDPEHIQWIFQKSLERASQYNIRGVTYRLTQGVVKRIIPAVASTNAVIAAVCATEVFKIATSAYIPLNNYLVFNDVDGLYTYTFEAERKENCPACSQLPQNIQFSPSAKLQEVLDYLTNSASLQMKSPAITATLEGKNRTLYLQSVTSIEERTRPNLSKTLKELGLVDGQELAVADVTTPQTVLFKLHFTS
T1 sequence (Q13564 whole entry): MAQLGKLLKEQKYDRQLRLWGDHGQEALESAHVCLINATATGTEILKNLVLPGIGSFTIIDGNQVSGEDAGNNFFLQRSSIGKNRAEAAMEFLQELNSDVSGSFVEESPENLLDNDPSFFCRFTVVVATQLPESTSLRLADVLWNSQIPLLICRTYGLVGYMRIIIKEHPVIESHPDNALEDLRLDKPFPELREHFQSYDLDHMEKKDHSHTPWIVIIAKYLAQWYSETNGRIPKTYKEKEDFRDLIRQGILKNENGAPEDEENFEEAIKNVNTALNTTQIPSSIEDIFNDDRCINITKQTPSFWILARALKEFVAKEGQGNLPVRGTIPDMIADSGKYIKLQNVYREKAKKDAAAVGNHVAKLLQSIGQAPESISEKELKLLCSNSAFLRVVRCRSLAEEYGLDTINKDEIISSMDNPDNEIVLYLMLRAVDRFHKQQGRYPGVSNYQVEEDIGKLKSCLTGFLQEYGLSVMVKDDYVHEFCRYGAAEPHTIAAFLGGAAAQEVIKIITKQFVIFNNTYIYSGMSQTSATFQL
The experiment in a line: Inhibition of NAE (unknown origin). Format: protein-complex assay.

In assay [1], `NS(=O)(=O)OC[C@@H]1C[C@@H](n2ccc3c(NC4CCc5ccccc54)ncnc32)C[C@@H]1O` (stereo partly drawn) yielded an IC50 of 8.2 µM.
Take `CCCCCCCCCCCCCCCc1cccc(O)c1C(=O)O` [ANACARDIC ACID]: in assay [2], the IC50 worked out at 2.2 µM.
Regarding `COC(=O)C1=C(C(=O)OC)[C@@]2([C@@H](Cc3ccc(C)cc3)Nc3ccccc3)C=C[C@@H]1O2`, the IC50 in assay [3] is 0.2 µM.
In the case of `CO/C(=C/C(=O)O)[C@H]1c2cc3ccc(-c4ccc5cc6c(c(O)c5c4O)C(=O)C[C@@](C)(O)[C@H]6/C(=C\C(=O)O)OC)c(O)c3c(O)c2C(=O)C[C@@]1(C)O`, the half-inhibitory concentration (IC50) in assay [4] amounted to 4.4 µM.
Consider `CCOC(=O)CCc1ccc(-c2ccccc2O)c(O)c1`, for which the IC50 in assay [5] came out at 3000 µM.
In the case of `Oc1ccccc1-c1ccccc1O`, in assay [5], the half-inhibitory concentration (IC50) is 5800 µM.
On to `CC(C)[C@]12O[C@H]1[C@@H]1O[C@]13[C@]1(O[C@H]1C[C@H]1C4=C(CC[C@@]13C)C(=O)OC4)[C@@H]2O` [TRIPTOLIDE], for which the half-inhibitory concentration (IC50) in the assay on LNCaP turned out to be 0.0097 µM; in the assay with PC-3, 0.0203 µM.
`CCCCCC/C=C\CCCCCCCc1cccc(O)c1C(=O)O` [GINGKOLIC ACID]: in assay [2], the IC50 was determined as 3 µM.
As to `O=C(O)c1cccc(C(=O)NCc2ccc(C(=O)NNC(=O)[C@H]3O[C@@H]3C(=O)C(Cc3cccc4ccccc34)Cc3cccc4ccccc34)cc2)c1`, in [6], the IC50 worked out at 16.2 µM.
`O=C(O)CN(NC(=O)c1ccc(CNC(=O)c2cccc(C(=O)O)c2)cc1)C(=O)[C@H]1O[C@@H]1C(=O)C(Cc1cccc2ccccc12)Cc1cccc2ccccc12` registered an IC50 in assay [6] of 17.9 µM.
For `C[C@@H]1O[C@@H](O[C@@H]2C[C@H](c3ccc4c(c3O)C(=O)C3=C(C4=O)[C@@]4(O[C@H]5CC[C@H](O)[C@H](C)O5)C(=O)C[C@](C)(O)C[C@@]4(O)C=C3)O[C@H](C)[C@H]2O)CC[C@@H]1O[C@H]1C[C@@H](O)[C@H](O)[C@@H](C)O1`, in assay [2], the IC50 is 11.7 µM.
Take `c1coc(-c2cc(CNc3ncnc4sc5cnccc5c34)no2)c1`: in [7], the 50% inhibitory concentration (IC50) was 74 µM.
With `COc1ccc(NC(=O)[C@H](CCCN)Nc2cc(C)nc(NCCc3cccs3)n2)cc1`, the IC50 in assay [8] came out at 12.5 µM.
As for `O=c1cc(-c2ccc(O)c(O)c2O)oc2ccccc12`, in assay [9], the half-inhibitory concentration (IC50) was determined as 6 µM.
In the case of `NS(=O)(=O)OC[C@@H]1C[C@@H](Nc2ncncc2C(=O)c2ccn(Cc3cccc(Br)c3)n2)C[C@@H]1O`, the half-maximal inhibitory concentration (IC50) in [1] is 0.003 µM; in assay [10], above 100 µM; against NEDD8 activating enzyme it was 32 µM.
